Experimental data from paper PMC3467072 (Nucleic Acids Research, 2012).

Columns and labels:
Type in all cases: binding, Mycobacterium tuberculosis
Rv3066 mutant W131A = system: Rv3066 mutant W131A
Rv3066 mutant N112A = system: Rv3066 mutant N112A
Rv3066 mutant W80A = system: Rv3066 mutant W80A

CC[n+]1c(-c2ccccc2)c2cc(N)ccc2c2ccc(N)cc21 [ethidium, ethidium bromide]
three to four times: Decrease of affinity for ethidium binding, W131A versus wild-type (Rv3066 mutant W131A) | Decrease of affinity for ethidium binding, N112A versus wild-type (Rv3066 mutant N112A) | Decrease of affinity for ethidium binding, W80A versus wild-type (Rv3066 mutant W80A)
